Biological target: T1, human PAH with the R408W mutation (Homo sapiens, UniProt P00439, R408W)
T1 construct: expressed in transfected cells
T1 sequence (P00439 1-452 R408W): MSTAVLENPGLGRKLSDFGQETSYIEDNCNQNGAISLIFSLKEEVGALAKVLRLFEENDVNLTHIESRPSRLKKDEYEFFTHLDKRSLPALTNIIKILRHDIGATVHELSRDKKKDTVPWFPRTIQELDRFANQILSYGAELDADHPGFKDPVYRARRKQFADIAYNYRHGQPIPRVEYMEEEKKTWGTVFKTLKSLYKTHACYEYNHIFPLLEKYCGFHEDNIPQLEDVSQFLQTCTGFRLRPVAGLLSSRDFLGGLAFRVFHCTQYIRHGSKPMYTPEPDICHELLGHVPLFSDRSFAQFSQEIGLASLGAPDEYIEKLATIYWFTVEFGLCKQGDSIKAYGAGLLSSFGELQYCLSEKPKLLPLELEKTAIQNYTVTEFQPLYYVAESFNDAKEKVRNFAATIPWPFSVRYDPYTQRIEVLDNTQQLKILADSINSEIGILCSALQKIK
Experiment: Cell Based Phenylalanine Flux Assay
Set-up: scale not given here
Details: A375 R408W cells, 24 hrs with compound, then 20 μM sepiapterin and 800 μM 13C9,15N-Phenylalanine for 4 hours; 13C-Tyrosine by LC-MS; average where tested multiple times

AC50	Compound
E, E	CC1CN(C(=O)c2nnc(N3CCN(C)CC3)o2)C(c2cc3ccccc3cn2)c2nc[nH]c21 [(4S, 7S) diastereomer of 3-[7-methyl-5-[5-(4-methylpiperazin]
E, E,	CC1CN(C(=O)c2oc(C(C)(C)O)nc2C(F)(F)F)C(c2cc3ccccc3cn2)c2nc[nH]c21 [(4R, 7S) diastereomer of (2-(2-hydroxypropan-2-yl)-4-(triflu]
E, E	Cc1nnc(C(=O)N2CC(C)c3[nH]cnc3C2c2cc3ccccc3cn2)o1 [(4S, 7S) diastereomer of 3-[7-methyl-5-(5-methyl-1,3,4-oxadi]

Same assay, conditions: A375 R408W cells, 24 hrs with compound, then 20 μM sepiapterin and 800 μM 13C9,15N-Phenylalanine for 4 hours; 13C-Tyrosine by LC-MS; average where tested multiple times; read-out: AC50

Compound	AC50 [nM]
O=C(c1nnc(-c2cnn(S(=O)(=O)C3CC3)c2)o1)N1CCc2[nH]cnc2[C@H]1c1cc2ccccc2cn1	> 5000
Cc1nc(CCN2CC(F)C2)oc1C(=O)N1CCc2[nH]cnc2C1c1ccc2ccccc2n1 (stereo not shown)	> 5000
O=C(c1nnc(N2CCOCC2)o1)N1CCc2[nH]cnc2C1c1ccc2ccccc2n1 (stereo not shown)	1000 to 5000
CC1CN(C(=O)c2nnc(N3CCC(F)CC3)o2)C(c2cc3ccccc3cn2)c2nc[nH]c21 (stereo not shown)	1000 to 5000
CC1CN(C(=O)c2ocnc2C(F)(F)F)C(c2cc3ccccc3cn2)c2nc[nH]c21 (stereo not shown)	1000 to 5000

Next, values leading:

AC50 [nM]	Compound
> 5000	CC(C)(O)c1ncc(C(=O)N2CCc3[nH]cnc3C2c2ncc3ccccc3n2)o1 (stereo not shown)
> 5000	Cc1nc(NC2CC2)oc1C(=O)N1CCc2[nH]cnc2C1c1ccc2ccccc2n1 (stereo not shown)
> 5000	CC(C)(O)c1ccc2c(C(=O)N3CCc4[nH]cnc4C3c3ccc4ccccc4n3)cnn2c1 (stereo not shown)
1000 to 5000	O=C(c1nnc(N2CC(F)C2)o1)N1CCc2[nH]cnc2C1c1ncc2ccccc2n1 (stereo not shown)

Same assay, conditions: A375 cells expressing human R408W PAH; 24 hrs compound incubation; 13C-Tyrosine by LC-MS; average where tested multiple times; read-out: AC50

Compound	AC50 [nM]
C[C@H]1CN(C(=O)c2oc(-c3ccccn3)nc2C2CC2)[C@H](c2cc3ccccc3cn2)c2nc[nH]c21 [Example 407, (4-cyclopropyl-2-(pyridin-2-yl)oxazol-5-yl)((4R,7S)-4-(isoquinolin-3-yl)-7-methyl-6,7-dihydro-1H-imidazo[4,5-c]pyridin-5(4H)-yl)methanone]	< 500
O=C(c1nnc(-c2c(F)cccc2F)o1)N1CCc2[nH]cnc2[C@H]1c1cc2ccccc2cn1 [Example 334, (R)-(5-(2,6-difluorophenyl)-1,3,4-oxadiazol-2-yl)(4-(isoquinolin-3-yl)-6,7-dihydro-1H-imidazo[4,5-c]pyridin-5(4H)-yl)methanone]	< 500

Other lines, results leading:

AC50 [nM]	Compound
< 500	Cc1nc(C(C)(C)C#N)oc1C(=O)N1CCc2[nH]cnc2C1c1ccc2ccccc2n1 (stereo in doubt) [Example 118, (R)-2-methyl-2-(4-methyl-5-(4-(quinolin-2-yl)-4,5,6,7-tetrahydro-1H-imidazo[4,5-c]pyridine-5-carbonyl)oxazol-2-yl)propanenitrile]
> 5000	CC(C)(F)c1ncc(C(=O)N2CCc3[nH]cnc3[C@@H]2c2cc3ccccc3cn2)o1 [Example 338, (S)-(2-(2-fluoropropan-2-yl)oxazol-5-yl)(4-(isoquinolin-3-yl)-6,7-dihydro-1H-imidazo[4,5-c]pyridin-5(4H)-yl)methanone]
< 500	Cn1cc(-c2ncc(C(=O)N3CCc4[nH]cnc4[C@H]3c3cc4ccccc4cn3)o2)cn1 [Example 311, (R)-(4-(isoquinolin-3-yl)-6,7-dihydro-1H-imidazo[4,5-c]pyridin-5(4H)-yl)(2-(1-methyl-1H-pyrazol-4-yl)oxazol-5-yl)methanone]
< 500	O=C(c1nnc(-c2ccccn2)o1)N1CCc2[nH]cnc2[C@H]1c1cc2ccccc2cn1 [Example 324, (R)-(4-(isoquinolin-3-yl)-6,7-dihydro-1H-imidazo[4,5-c]pyridin-5(4H)-yl)(5-(pyridin-2-yl)-1,3,4-oxadiazol-2-yl)methanone]
500 to 1000	CC(C)(F)c1ncc(C(=O)N2CCc3[nH]cnc3[C@H]2c2cn3ccccc3n2)s1 [Example 248, (R)-(2-(2-fluoropropan-2-yl)thiazol-5-yl)(4-(imidazo[1,2-a]pyridin-2-yl)-6,7-dihydro-1H-imidazo[4,5-c]pyridin-5(4H)-yl)methanone]
